Experiments:
H3 receptors = target: T1, H3 receptors (Cavia porcellus, UniProt Q9JI35); assay: H3 Receptor Binding Assay; details: guinea pig brain membranes; 3 nM [3H]R-α-methylhistamine or 3 nM [3H]Nα-methylhistamine; 50 mM Tris pH 7.5, 30° C., 30 min
T1 construct: The source of the H3 receptors in this experiment was guinea pig brain; from tissue; host or cells: guinea pig brain membranes
Description: The source of the H3 receptors in this experiment was guinea pig brain. The animals weighed 400-600 g. The brain tissue was homogenized using a Polytron in a solution of 50 mM Tris, pH 7.5. The final concentration of tissue in the homogenization buffer was 10% w/v. The homogenates were centrifuged at 1,000×g for 10 min. in order to remove clumps of tissue and debris. The resulting supernatants were then centrifuged at 50,000×g for 20 min. in order to sediment the membranes, which were next washed three times in homogenization buffer (50,000×g for 20 min. each). The membranes were frozen and stored at -70° C. until needed.
All compounds to be tested were dissolved in DMSO and then diluted into the binding buffer (50 mM Tris, pH 7.5) such that the final concentration was 2 μg/ml with 0.1% DMSO. Membranes were then added (400 μg of protein) to the reaction tubes. The reaction was started by the addition of 3 nM [^3 H]R-α-methylhistamine (8.8 Ci/mmol) or 3 nM [^3 H]N^α -methylhistamine (80 Ci/mmol) and continued under incubation at 30° C. for 30 min. Bound ligand was separated from unbound ligand by filtration, and the amount of radioactive ligand bound to the membranes was quantitated by liquid scintillation spectrometry. All incubations were performed in duplicate and the standard error was always less than 10%. Compounds that inhibited more than 70% of the specific binding of radioactive ligand to the receptor were serially diluted to determine a Ki (nM).

histamine H3 receptor = details: mice, electrically induced convulsions; cited from earlier work

T1 sequence (Q9JI35 whole entry): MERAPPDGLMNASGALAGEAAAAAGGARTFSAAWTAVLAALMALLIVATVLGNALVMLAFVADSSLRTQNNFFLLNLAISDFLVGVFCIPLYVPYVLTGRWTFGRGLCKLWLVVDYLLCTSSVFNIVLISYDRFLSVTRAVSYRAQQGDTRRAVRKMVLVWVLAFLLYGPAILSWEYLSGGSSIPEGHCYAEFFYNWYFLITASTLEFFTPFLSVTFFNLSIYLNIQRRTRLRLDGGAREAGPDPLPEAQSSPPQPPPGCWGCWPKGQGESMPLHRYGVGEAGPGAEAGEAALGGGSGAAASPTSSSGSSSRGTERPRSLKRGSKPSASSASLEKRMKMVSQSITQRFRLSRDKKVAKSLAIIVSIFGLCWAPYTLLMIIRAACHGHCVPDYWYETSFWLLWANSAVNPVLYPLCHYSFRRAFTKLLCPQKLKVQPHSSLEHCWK

Structure (SMILES) | Ki (H3 receptors) [nM] | other results
O=C(/C=C/c1ccc(Cc2c[nH]cn2)cc1)Nc1ccc(Cl)cc1 [Compound 1] | 2 | –
O=C(/C=C/c1ccc(Cc2c[nH]cn2)cc1)NCc1ccc(Cl)cc1 [Compound 2] | 23 | –
O=C(/C=C/c1ccc(Cc2c[nH]cn2)cc1)NCCc1ccc(Cl)cc1 [Compound 3] | 7 | –
CN(C(=O)/C=C/c1ccc(Cc2c[nH]cn2)cc1)c1ccc(Cl)cc1 [Compound 4] | 45 | –
CN(CCc1ccc(Cl)cc1)C(=O)/C=C/c1ccc(Cc2c[nH]cn2)cc1 [Compound 5] | 35 | –
O=C(/C=C/c1ccc(Cc2c[nH]cn2)cc1)Nc1ccccc1 [Compound 6] | 2 | –
O=C(/C=C/c1ccc(Cc2c[nH]cn2)cc1)NC1CCCCC1 [Compound 7] | 26 | –
O=C(/C=C/c1ccc(Cc2c[nH]cn2)cc1)NCCc1cccc(Cl)c1 [Compound 8] | 11 | –
CC(Cc1ccc(Cl)cc1)NC(=O)/C=C/c1ccc(Cc2c[nH]cn2)cc1 (stereo not drawn) [Compound 9] | 10 | –
CC(CNC(=O)/C=C/c1ccc(Cc2c[nH]cn2)cc1)c1ccccc1 (stereo not drawn) [Compound 10] | 19 | –
COc1ccc(CCNC(=O)/C=C/c2ccc(Cc3c[nH]cn3)cc2)cc1 [Compound 11] | 7 | –
O=C(/C=C/c1ccc(Cc2c[nH]cn2)cc1)NCCc1c[nH]c2ccccc12 [Compound 12] | 45 | –
Cn1cnc(Cc2ccc(/C=C/C(=O)Nc3ccc(Cl)cc3)cc2)c1 [Compound 13] | 270 | –
O=C(/C=C/c1ccc(Cc2c[nH]cn2)cc1)NCCc1ccsc1 [Compound 15] | 12 | –
O=C(/C=C/c1ccc(Cc2c[nH]cn2)cc1)NCCc1cccc(F)c1 [Compound 16] | 10 | –
O=C(/C=C/c1ccc(Cc2c[nH]cn2)cc1)NCCc1cccnc1 [Compound 17] | 190 | –
O=C(/C=C/c1ccc(Cc2c[nH]cn2)cc1)NCCc1ccccc1F [Compound 18] | 10 | –
O=C(/C=C/c1ccc(Cc2c[nH]cn2)cc1)NCCc1ccccc1Cl [Compound 19] | 12 | –
O=C(/C=C/c1ccc(Cc2c[nH]cn2)cc1)NCCCN1CCCC1 [Compound 20] | 580 | –

Structure (SMILES) | Ki (H3 receptors) [nM] | other results
O=C(/C=C/c1ccc(Cc2c[nH]cn2)cc1)NCc1ccco1 [Compound 21] | 110 | –
Cc1ccc(CCNC(=O)/C=C/c2ccc(Cc3c[nH]cn3)cc2)cc1 [Compound 22] | 6 | –
CC(CCc1ccccc1)NC(=O)/C=C/c1ccc(Cc2c[nH]cn2)cc1 (stereo not drawn) [Compound 23] | 37 | –
O=C(/C=C/c1ccc(Cc2c[nH]cn2)cc1)NC1CCCc2ccccc21 (stereo not drawn) [Compound 24] | 220 | –
O=C(/C=C/c1ccc(Cc2c[nH]cn2)cc1)c1ccc(Cl)cc1 [Compound 25] | 400 | –
O=C(/C=C/c1ccc(Cc2c[nH]cn2)cc1)NCc1ccc2ccccc2c1 [Compound 26] | 200 | –
CN1CCCC1CCNC(=O)/C=C/c1ccc(Cc2c[nH]cn2)cc1 (stereo not drawn) [Compound 27] | 1000 | –
O=C(/C=C/c1ccc(Cc2c[nH]cn2)cc1)NCCc1ccc(Cl)cc1Cl [Compound 28] | 36 | –
O=C(/C=C/c1ccc(Cc2c[nH]cn2)cc1)NCCc1ccccc1 [Compound 29] | 17 | –
O=C(/C=C/c1ccc(Cc2c[nH]cn2)cc1)Nc1cc(Cl)cc(Cl)c1 [Compound 30] | 12 | –
O=C(/C=C/c1ccc(Cc2c[nH]cn2)cc1)Nc1cccc(Cl)c1 [Compound 31] | 4 | –
N#Cc1cccc(NC(=O)/C=C/c2ccc(Cc3c[nH]cn3)cc2)c1 [Compound 32] | 4 | –
COc1cccc(NC(=O)/C=C/c2ccc(Cc3c[nH]cn3)cc2)c1 [Compound 33] | 3 | –
Cc1cc(C)cc(NC(=O)/C=C/c2ccc(Cc3c[nH]cn3)cc2)c1 [Compound 34] | 2 | –
O=C(/C=C/c1ccc(Cc2c[nH]cn2)cc1)Nc1cccc(F)c1 [Compound 35] | 1 | –
O=C(/C=C/c1ccc(Cc2c[nH]cn2)cc1)Nc1ccc(F)cc1 [Compound 36] | 5 | –
O=C(/C=C/c1ccc(Cc2c[nH]cn2)cc1)Nc1cccc(OC(F)(F)F)c1 [Compound 37] | 8 | –
O=C(/C=C/c1ccc(Cc2c[nH]cn2)cc1)Nc1ccc(OC(F)(F)F)cc1 [Compound 38] | 10 | –
S=C(NC1CCCCC1)N1CCC(c2cnc[nH]2)CC1 [thioperamide] | – | duration of each phase of convulsion (histamine H3 receptor): decreased; electroconvulsive threshold (histamine H3 receptor): raised

Source: patent US6034251A, “Phenyl-alkyl-imidazoles” (Schering Corporation, priority 1998, dated 2000)
